Source: US9890155B2, “Aza-oxo-indoles for the treatment and prophylaxis of respiratory syncytial virus infection” (Hoffmann-La Roche Inc., priority 2013, dated 2018)

Columns and labels:
RSV Long strain = test: Viral Cytopathic Effect (CPE) Assay; type: cell-based; details: human respiratory syncytial virus, 144 h, cell viability after 6 days (Cell Counting kit-8)
Description: EC50: the concentration of a compound where 50% of its maximal protection effect against viral induced CPE is observed
LongStrain: an A subtype RSV strain obtained from ATCC with catalog number VR-26
To measure anti-RSV activity of compounds, 96-well plates are seeded with 6×10^3 cells per well in Dulbecco's modified Eagle's medium (DMEM) containing 10% fetal bovine serum (FBS). Cells are infected the next day with sufficient RSV Long strain (ATCC) to produce an approximately 80-90% cytopathic effect after 6 days, in the presence of serial half-log diluted compound in a total volume of 200 μL per well. The viability of cells is assessed after 6 days using Cell Counting kit-8 (Dojindo Molecular Technologies). The absorbance at 450 nm and referenced at 630 nm is measured to determine 50% effective concentration (EC50).

RSV infection = details: intramuscularly 15 mg/kg once a month for the RSV season, selected infants; cited from earlier work

Compound | EC50 (RSV Long strain) | reduction of hospitalization rate caused by RSV infection (RSV infection)
N#Cc1cccc(-n2c(CN3C(=O)C4(CC4)c4ccncc43)nc3cc(Cl)ccc32)c1 [Example 4-7, 3-{5-Chloro-2-[(2′-oxospiro[cyclopropane-1,3′-pyrrolo[2,3-c]pyridin]-1′(2′H)-yl)methyl]-1H-benzimidazol-1-yl}benzonitrile] | 7 nM | 
CS(=O)(=O)c1cncc(-n2c(CN3C(=O)C4(CC4)c4ccncc43)nc3cc(Cl)ccc32)c1 [Example 5-1, 1′-({5-Chloro-1-[5-(methylsulfonyl)pyridin-3-yl]-1H-benzimidazol-2-yl}methyl)spiro[cyclopropane-1,3′-pyrrolo[2,3-c]pyridin]-2′(1H)-one] | 5 nM | 
palivizumab: a humanized monoclonal antibody against RSV fusion (F) protein approved for prophylaxis in high-risk infants |  | 45-55%
CS(=O)(=O)c1cccc(-n2c(CN3C(=O)C4(CC4)c4ccncc43)nc3cc(Cl)ccc32)c1 [Example 4-4, 1′-({5-chloro-1-[3-(methylsulfonyl)phenyl]-1H-benzimidazol-2-yl}methyl)spiro[cyclopropane-1,3′-pyrrolo[2,3-c]pyridin]-2′(1′H)-one] | 8 nM | 
CS(=O)(=O)c1ccc(-n2c(CN3C(=O)C4(CC4)c4ccncc43)nc3cc(Cl)ccc32)cn1 [Example 4-3, 1′-({5-Chloro-1-[6-(methylsulfonyl)pyridin-3-yl]-1H-benzimidazol-2-yl}methyl)spiro[cyclopropane-1,3′-pyrrolo[2,3-c]pyridin]-2′(1′H)-one] | 4 nM | 
CCOC(=O)Cc1ccc(-n2c(CN3C(=O)C4(CC4)c4ccncc43)nc3cc(Cl)ccc32)cc1 [Example 3, Ethyl(4-{5-chloro-2-[(2′-oxospiro[cyclopropane-1,3′-pyrrolo[2,3-c]pyridin]-1′(2′H)-yl)methyl]-1H-benzimidazol-1-yl}phenyl)acetate] | 14 nM | 
COC(=O)c1cccc(-n2c(CN3C(=O)C4(CC4)c4ccncc43)nc3cc(Cl)ccc32)c1 [Example 4-6, Methyl 3-{5-chloro-2-[(2′-oxospiro[cyclopropane-1,3′-pyrrolo[2,3-c]pyridin]-1′(2′H)-yl)methyl]-1H-benzimidazol-1-yl}benzoate] | 16 nM | 
CS(=O)(=O)c1ccc(-n2c(CN3C(=O)C4(CC4)c4ccncc43)nc3cc(Cl)ccc32)cc1 [Example 4-5, 1′-({5-Chloro-1-[4-(methylsulfonyl)phenyl]-1H-benzimidazol-2-yl}methyl)spiro[cyclopropane-1,3′-pyrrolo[2,3-c]pyridin]-2′(1′H)-one] | 5 nM | 
CCS(=O)(=O)c1ccnc(-n2c(CN3C(=O)C4(CC4)c4ccncc43)nc3cc(Cl)ccc32)c1 [Example 2-2, 1′-({5-Chloro-1-[4-(ethylsulfonyl)pyridin-2-yl]-1H-benzimidazol-2-yl}methyl)spiro[cyclopropane-1,3′-pyrrolo[2,3-c]pyridin]-2′(1′H)-one] | 21 nM | 
CC(=O)c1cccc(-n2c(CN3C(=O)C4(CC4)c4ccncc43)nc3cc(Cl)ccc32)c1 [Example 4-8, 1′-{[1-(3-Acetylphenyl)-5-chloro-1H-benzimidazol-2-yl]methyl}spiro[cyclopropane-1,3′-pyrrolo[2,3-c]pyridin]-2′(1′H)-one] | 19 nM | 
CCOC(=O)c1ccc(-n2c(CN3C(=O)C4(CC4)c4ccncc43)nc3cc(Cl)ccc32)cc1 [Example 4-2, Ethyl 4-{5-chloro-2-[(2′-oxospiro[cyclopropane-1,3′-pyrrolo[2,3-c]pyridin]-1′(2′H)-yl)methyl]-1H-benzimidazol-1-yl}benzoate] | 6 nM | 
O=C1N(Cc2nc3cc(Cl)ccc3n2-c2ccccc2)c2cnccc2C12CC2 [Example 4-1, 1′-[(5-Chloro-1-phenyl-1H-benzimidazol-2-yl)methyl]spiro[cyclopropane-1,3′-pyrrolo[2,3-c]pyridin]-2′(1′H)-one] | 17 nM | 
COc1ccc(-n2c(CN3C(=O)C4(CC4)c4ccncc43)nc3cc(Cl)ccc32)cn1 [Example 4-9, 1′-{[5-Chloro-1-(6-methoxypyridin-3-yl)-1H-benzimidazol-2-yl]methyl}spiro[cyclopropane-1,3′-pyrrolo[2,3-c]pyridin]-2′(1′H)-one] | 11 nM | 
CS(=O)(=O)c1cc(-n2c(CN3C(=O)C4(CC4)c4ccncc43)nc3cc(Cl)ccc32)ccn1 [Example 2-1, 1′-({5-Chloro-1-[2-(methylsulfonyl)pyridin-4-yl]-1H-benzimidazol-2-yl}methyl)spiro[cyclopropane-1,3′-pyrrolo[2,3-c]pyridin]-2′(1′H)-one] | 65 nM | 
N#Cc1ccc(-n2c(CN3C(=O)C4(CC4)c4ccncc43)nc3cc(Cl)ccc32)cn1 [Example 1, 5-{5-Chloro-2-[(2′-oxospiro[cyclopropane-1,3′-pyrrolo[2,3-c]pyridin]-1′(2′H)-yl)methyl]-1H-benzimidazol-1-yl}pyridine-2-carbonitrile] | 0.7 nM | 

Second part, led by results:

EC50 (RSV Long strain) | Compound | reduction of hospitalization rate caused by RSV infection (RSV infection)
512 nM | O=C(O)c1cccc(-n2c(CN3C(=O)C4(CC4)c4ccncc43)nc3cc(Cl)ccc32)c1 [Example 6-2, 3-{5-Chloro-2-[(2′-oxospiro[cyclopropane-1,3′-pyrrolo[2,3-c]pyridin]-1′(2′H)-yl)methyl]-1H-benzimidazol-1-yl}benzoic acid] | 
5 nM | CS(=O)(=O)c1cccc(-n2c(CN3C(=O)C4(CC4)c4ccncc43)nc3cc(Cl)ccc32)n1 [Example 5-2, 1′-({5-Chloro-1-[6-(methylsulfonyl)pyridin-2-yl]-1H-benzimidazol-2-yl}methyl)spiro[cyclopropane-1,3′-pyrrolo[2,3-c]pyridin]-2′(1′H)-one] | 
25 nM | CS(=O)(=O)c1ccc(-c2c(CN3C(=O)C4(CC4)c4ccncc43)[nH]c3cc(Cl)ccc23)cc1 [Example 9-1, 1′-({6-Chloro-3-[4-(methylsulfonyl)phenyl]-1H-indol-2-yl}methyl)spiro[cyclopropane-1,3′-pyrrolo[2,3-c]pyridin]-2′(1′H)-one] | 
6 nM | O=C(O)c1ccc(-n2c(CN3C(=O)C4(CC4)c4ccncc43)nc3cc(Cl)ccc32)cc1 [Example 6-1, 4-{5-Chloro-2-[(2′-oxospiro[cyclopropane-1,3′-pyrrolo[2,3-c]pyridin]-1′(2′H)-yl)methyl]-1H-benzimidazol-1-yl}benzoic acid] | 
13 nM | NC(=O)c1ccc(-n2c(CN3C(=O)C4(CC4)c4ccncc43)nc3cc(Cl)ccc32)cc1 [Example 7, 4-{5-Chloro-2-[(2′-oxospiro[cyclopropane-1,3′-pyrrolo[2,3-c]pyridin]-1′(2′H)-yl)methyl]-1H-benzimidazol-1-yl}benzamide] | 
19 nM | Cc1cc(-n2c(CN3C(=O)C4(CC4)c4ccncc43)nc3cc(Cl)ccc32)cc(S(C)(=O)=O)c1 [Example 5-3, 1′-({5-Chloro-1-[3-methyl-5-(methylsulfonyl)phenyl]-1H-benzimidazol-2-yl}methyl)spiro[cyclopropane-1,3′-pyrrolo[2,3-c]pyridin]-2′(1′H)-one] | 
18 nM | O=C1N(Cc2nc3cc(Cl)ccc3n2-c2ccc(O)nc2)c2cnccc2C12CC2 [Example 8, 1′-{[5-Chloro-1-(6-hydroxypyridin-3-yl)-1H-benzimidazol-2-yl]methyl}spiro[cyclopropane-1,3′-pyrrolo[2,3-c]pyridin]-2′(1′H)-one] | 
29 nM | CS(=O)(=O)c1cccc(-c2c(CN3C(=O)C4(CC4)c4ccncc43)[nH]c3cc(Cl)ccc23)c1 [Example 9-2, 1′-({6-Chloro-3-[3-(methylsulfonyl)phenyl]-1H-indol-2-yl}methyl)spiro[cyclopropane-1,3′-pyrrolo[2,3-c]pyridin]-2′(1′H)-one] | 
50 nM | O=C(O)c1ccc(-n2c(CN3C(=O)C4(CC4)c4ccc(F)cc43)nc3cc(Cl)ccc32)cc1 [Example 6-3, 4-{5-Chloro-2-[(6′-fluoro-2′-oxospiro[cyclopropane-1,3′-indol]-1′(2′H)-yl)methyl]-1H-benzimidazol-1-yl}benzoic acid] | 
